# Where two headings read alike, the source gives them in different places.
# Columns and labels:
# [1] = tested on: p75^NTR (i.e. Chopper)-mediated cell apoptosis; type: cell-based, mice
# GIRK 1 and 4 subunits = molecular target: T1, GIRK 1 and 4 subunits (Homo sapiens, UniProt P48544+P48549); settings: cited from earlier work
# T1 sequence (P48544 whole entry, looked up): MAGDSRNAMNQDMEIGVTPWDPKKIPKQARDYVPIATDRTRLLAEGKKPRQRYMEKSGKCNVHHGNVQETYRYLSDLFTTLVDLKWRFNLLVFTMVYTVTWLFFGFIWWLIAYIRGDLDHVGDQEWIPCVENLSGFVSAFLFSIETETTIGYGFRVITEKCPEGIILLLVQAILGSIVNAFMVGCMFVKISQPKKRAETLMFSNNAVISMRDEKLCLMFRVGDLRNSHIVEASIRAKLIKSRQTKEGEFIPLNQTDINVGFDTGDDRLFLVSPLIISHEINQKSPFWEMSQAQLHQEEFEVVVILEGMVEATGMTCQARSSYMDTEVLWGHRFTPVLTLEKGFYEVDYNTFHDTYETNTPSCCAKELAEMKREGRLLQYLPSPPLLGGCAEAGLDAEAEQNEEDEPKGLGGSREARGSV
# T1 sequence (P48549 whole entry, looked up): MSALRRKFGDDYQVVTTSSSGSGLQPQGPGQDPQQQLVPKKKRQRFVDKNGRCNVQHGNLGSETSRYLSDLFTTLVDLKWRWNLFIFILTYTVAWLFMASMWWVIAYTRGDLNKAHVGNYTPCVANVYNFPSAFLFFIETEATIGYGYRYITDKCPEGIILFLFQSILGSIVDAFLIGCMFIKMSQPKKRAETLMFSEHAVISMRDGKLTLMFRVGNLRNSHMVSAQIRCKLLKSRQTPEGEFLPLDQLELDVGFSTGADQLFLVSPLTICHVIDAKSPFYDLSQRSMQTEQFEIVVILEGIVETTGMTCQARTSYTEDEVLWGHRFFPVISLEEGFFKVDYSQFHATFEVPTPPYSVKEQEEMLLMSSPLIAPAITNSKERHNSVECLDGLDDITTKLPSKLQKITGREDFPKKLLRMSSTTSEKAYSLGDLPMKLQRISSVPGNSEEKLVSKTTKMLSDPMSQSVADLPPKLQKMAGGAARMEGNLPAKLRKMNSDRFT
# [2] = tested on: p75^NTR-mediated cell apoptosis; assay: Caspase activity after injection into the eye of chick embryos (FIG. 11); type: in vivo; settings: injected into the eye of chick embryos; 500 nM of Tertiapin
# Experimental: FIG. 11 is a graphical representation showing that p75^NTR-mediated cell apoptosis requires functional GIRK channels. Apoptotic activity is measured in terms of caspase activity in the presence of Tertiapin, anti-NGF antibody and Iberiotoxin.
# In FIG. 11, Tertiapin was injected into the eye of chick embryos. Anti-NGF antibodies and Iberiotoxin ([…]) were also tested. Apoptotic activity was measured using caspase activity.
# ROMK1 channels = molecular target: T2, ROMK1 channels (Homo sapiens, UniProt P48048); settings: cited from earlier work
# T2 sequence (P48048 whole entry, looked up): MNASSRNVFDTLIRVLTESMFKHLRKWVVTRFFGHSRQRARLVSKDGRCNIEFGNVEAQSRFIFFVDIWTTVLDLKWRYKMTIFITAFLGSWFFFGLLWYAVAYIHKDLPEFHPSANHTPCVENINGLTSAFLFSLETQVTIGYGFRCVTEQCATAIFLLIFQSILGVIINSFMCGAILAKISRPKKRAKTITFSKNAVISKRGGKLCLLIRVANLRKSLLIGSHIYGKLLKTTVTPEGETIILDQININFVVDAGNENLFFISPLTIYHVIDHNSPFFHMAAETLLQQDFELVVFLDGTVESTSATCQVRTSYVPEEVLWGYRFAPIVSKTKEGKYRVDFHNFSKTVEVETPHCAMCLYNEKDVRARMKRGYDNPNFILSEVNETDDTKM
# [3] = p75NTR (Chopper)-mediated apoptosis of neuronal cells, neuronal viability after Chopper peptide, inhibitor added just prior or pretreated
Molecule,"Prevention of killing? [1, 3]",also measured
2-APB,No,–
Nc1ccncc1 [4-aminopyridine],Toxic,–
CC(=O)OCOC(=O)CN(CC(=O)OCOC(C)=O)c1ccccc1OCCOc1ccccc1N(CC(=O)OCOC(C)=O)CC(=O)OCOC(C)=O [BAPTA-AM],Yes,–
O=C(O)CN(CC(=O)O)c1ccccc1OCCOc1ccccc1N(CC(=O)O)CC(=O)O [BAPTA],No,–
NCC(CC(=O)O)c1ccc(Cl)cc1 (stereo not shown) [Baclofen],–,cell survival ([1]; GABA receptor agonist activating GIRKs (FIG. 10 model)): promotion of cell survival
CCCCN1CCCCC1C(=O)Nc1c(C)cccc1C (stereo not shown) [Bupivicane],Yes,"Chopper domain-mediated killing / p75^NTR (i.e. Chopper)-mediated cell apoptosis ([1]; FIGS. 3-7, 10): inhibited"
"CC[N+](CC)(CC)CC.[Cl-] [TEA, Tetraethylammonium chloride]",–,Chopper domain-mediated killing / p75^NTR (i.e. Chopper)-mediated cell apoptosis [1]: inhibited; Prevention of killing? [1]: Yes
Charybdotoxin,Yes,"Chopper domain-mediated killing / p75^NTR (i.e. Chopper)-mediated cell apoptosis ([1]; FIGS. 3-7, 10): inhibited"
"Iberiotoxin (QFTDVDCSVSKECWSVCKDLFGVDRGKCMGKKCRCYQ; UniProt P24663 1-37, looked up)",No,–
Margatoxin,No,–
Pertussis toxin [Pertusis toxin],No,"Chopper domain-mediated killing / p75^NTR (i.e. Chopper)-mediated cell apoptosis ([1]; FIGS. 3-7, 10): still results in Chopper-mediated killing"
TTX,–,Prevention of killing? [1]: No
Tertiapin (ALCNCNRIIIPHMCWKKCGKK),Yes,"affinity of inhibition (GIRK 1 and 4 subunits): nanomolar affinities; Chopper domain-mediated killing / p75^NTR (i.e. Chopper)-mediated cell apoptosis ([1]; FIGS. 3-7, 10): inhibited; caspase activity (apoptotic activity) [2]: effective in reducing caspase activity; affinity of inhibition (ROMK1 channels): nanomolar affinities"
δ-Dendrotoxin,No,–
